# According to patent US7635675B2, “Micro-particle fatty acid salt solid dosage formulations for therapeutic agents” (Biocon Limited, priority 2003, dated 2009):
# Assay: USP dissolution test of fatty acid salts released from tablets and capsules
# Assay type: physicochemical
# Settings: tablet formulations where the fatty acids have been milled to optimum particle size (FIGS. 3-8); USP apparatus 2, 50 rpm, 500 mL pH 7.4 phosphate buffer
# Description: The formulations of the invention preferably have a high dissolution rate. The dissolution rate can be determined as follows: Use USP dissolution apparatus 2 (paddles) at 50 rpm with 500 mL of pH 7.4 phosphate buffer.
# USP 26, <711> DISSOLUTION Test Description:
# This test is provided to determine compliance with the dissolution requirements where stated in the individual monograph for a tablet or capsule dosage form. Of the types of apparatus described therein, use apparatus 2. […] Where water or a medium with a pH of less than 6.8 is specified as the Medium in the individual monograph, the same Medium specified may be used with the addition of purified pepsin that results in an activity of 750,000 Units or less per 1000 mL. For media with a pH of 6.8 or greater, pancreatin can be added to produce not more than 1750 USP Units of protease activity per 1000 mL. USP Reference Standards <11> (Dissolution Calibrator, Disintegrating). (Dissolution Calibrator, nondisintegrating) are used to calibrate the equipment.
# Apparatus 2: The assembly consists of the following: a covered vessel made of glass or other inert, transparent material; a motor; a metallic drive shaft; and a stirring element. The vessel is partially immersed in a suitable water bath of any convenient size or placed in a heating jacket. […]
row,dissolution (release) of fatty acid salt from tablet formulations,SMILES
1,readily released,CCCCCCCCCC(=O)[O-].[Na+] [capric acid sodium salt]
2,readily released,CCCCCCCCCCCC(=O)[O-].[Na+] [lauric acid sodium salt]
